The values below come from patent US11931463B2, “All-in-one fixed-dose combination for treating Helicobacter pylori infection” (RedHill Biopharma Ltd., priority 2013, dated 2024).

For data set [1] the following is noted: cited from earlier work.
Data set [2] is described as follows: clinical. Particulars: for concentration at 0.5 h / concentration at 1 h / concentration at 2 h / concentration at 3 h: both, human, in vivo. On the procedure: A single center, randomized, single and multiple doses, open-label, 2-period, 2-sequence, crossover study was carried out on male and female volunteers.
A Phase I Open-Label, 2-Arm Crossover Study to Evaluate the Relative Bioavailability of the pharmaceutical composition, also herein as test formulation (Rifabutin/Amoxicillin/Omeprazole 12.5 mg/250 mg/10 mg) capsules given 3 times a day, every 8 hours, compared to the concomitant administration of the three drug substance components in fasted healthy volunteers (Table 13). Test formulation (Treatment-1) was analyzed in comparison to the pharmacokinetics of the reference drugs rifabutin, amoxicillin and omeprazole given concomitantly (Treatment-2) under fasting conditions.
Treatment-1: 4× Test formulation Amoxicillin, Rifabutin, Omeprazole 250 mg/12.5 mg/10 mg capsules (Test) given three times daily, in the morning, afternoon and evening, 8 hours apart, for a total daily oral dose of 3000 mg/150 mg/120 mg.
Treatment-2: 1× Mycobutin® 150 mg capsule (Reference-1)+2× Amoxicillin 500 mg capsule (Reference-2)+1× Prilosec® 40 mg delayed-release capsule (Reference-3) taken concomitantly each given three times daily, in the morning, afternoon and evening, 8 hours apart, for a total daily oral dose of 150 mg rifabutin/3000 mg amoxicillin/120 mg omeprazole.
Reference-1 Product, Dose and Mode of Administration: • Name: Mycobutin® • Dosage form/Route of administration: Capsule/Oral • Regimen: Single 150 mg dose (1×150 mg) given once in the morning, for a total daily oral dose of 150 mg.
Reference-2 Product, Dose and Mode of Administration: • Name: Amoxicillin • Dosage form/Route of administration: Capsule/Oral • Regimen: Single 1000 mg dose (2×500 mg) given three times daily, in the morning, afternoon and evening, 8 hours apart, for a total of a total daily oral dose of 3000 mg.
Reference-3 Product, Dose and Mode of Administration: • Name: Prilosec® • Dosage form/Route of administration: Delayed Release Capsule/Oral • Regimen: Single 40 mg dose (1×40 mg), given three times daily, in the morning, afternoon and evening, 8 hours apart, for a total of a total daily oral dose of 120 mg
Treatments: • Treatment-1: 4 capsules of the Test formulation was given three times daily, in the morning, afternoon and evening, 8 hours apart, for a total daily oral dose of 150 mg rifabutin/3000 mg amoxicillin/120 mg omeprazole) • Treatment-2: Reference-1 drug (Rifabutin) was given once in the morning together with 2 capsules of Reference-2 drug (amoxicillin) and 1 capsule of Reference-3 drug (Omeprazole). Each reference drug was given three times daily, in the morning, afternoon and evening, 8 hours apart, for a total daily oral dose of 150 mg rifabutin/3000 mg amoxicillin/120 mg omeprazole).
Single and multiple oral doses were administered under fasting conditions in each study period. The drug administrations were separated by a wash-out of 14 calendar days.
For each Treatment in each study period, 78 blood samples were collected on 26 occasions.
Main absorption and disposition parameters using a non-compartmental approach with a log-linear terminal phase assumption. Trapezoidal rule to estimate the area under the curve. The pharmacokinetic parameters for this study were to be Cmax, Tmax, Cmin, C24, Clast, Tlast, AUC0-24, AUC∞, Kel and T1/2el.
Statistical analysis of Tmax based on a non-parametric approach. Statistical analysis of all other pharmacokinetic parameters based on a parametric ANOVA model. […] ANOVA Model: • fixed factors: sequence, period, treatment • random factor: subject (nested within sequence) Safety: • Descriptive statistics.

For data set [3] the following is noted: cited from earlier work. The source holds these as a separate data set.
A short description of data set [4]: Assay and related substances under accelerated conditions 40° C./75% RH. In kind it is physicochemical.
The nature of data set [5]: In vitro dissolution assay, 900 ml 0.01 N HCl, 100 rpm, baskets apparatus. It is filed as physicochemical. Here is the method: In some embodiments, an average of no less than 80% of amoxicillin is released in 60 min at 100 rpm in a baskets apparatus (900 ml 0.01 N HCl, at 100 rpm in a baskets apparatus). In some embodiments, an average of 90%, 96%, and 97% of the amoxicillin is released in an in vitro dissolution assay at 20, 30, and 45 minutes, respectively.
In some embodiments, an average of no less than 75% of rifabutin is released in 45 min at 100 rpm in a baskets apparatus (900 ml 0.01 N HCl, at 100 rpm in a baskets apparatus). In some embodiments, an average of 95, 97, and 98% of the rifabutin is released in an in vitro dissolution assay at 20, 30, and 45 minutes, respectively.

The conditions of data set [6]: cited from earlier work. This is another data set of the same source.
In data set [7] the test system is plasma proteins. Particulars: cited from earlier work.
For data set [8], the system named is H. pylori. The conditions noted are these: cited from earlier work.
Data set [9] can be described thus: clinical. The conditions noted are these: human, in vivo, 50 mg.
The mark [10] stands for this setting: single oral 1000 mg dose of amoxicillin capsules, fasting.
[11] abbreviates: single oral 150 mg dose of rifabutin capsules, fasting.

Read-outs that look alike come from different tables or passages of the source.

As to 25-O-desacetylrifabutin, in data set [1] (in vivo), the “plasma metabolite: parent area under the curve ratio” value is listed as 0.10.
With 31-hydroxyrifabutin, the “plasma metabolite: parent area under the curve ratio” value in [1] (in vivo) is on record as 0.07.
In general, Cmax refers to the peak of the concentration-time curve. Usually Tmax stands for the time from dosing to the highest level. Turning to `CC1(C)S[C@@H]2[C@H](NC(=O)[C@H](N)c3ccc(O)cc3)C(=O)N2[C@H]1C(=O)O` [Amoxicillin], in data set [2], the concentration at 0.5 h was 2380 ng/mL, the concentration at 1 h came to 8920 ng/mL, the concentration at 2 h stood at 14700 ng/mL and the concentration at 3 h worked out at 11300 ng/mL. Moreover, the T1/2el in data set [3] (in vivo, po, 1000 mg) was 1.15 h. Moreover, the “time to peak serum concentrations” value in data set [3] (in vivo, po) is 1 to 2 h. Besides, in data set [3] (in vivo), the “peak serum concentrations relative to equivalent dose of oral ampicillin” value is 2-2.5 times and the “stability in gastric acid” value is on record as “stable in the presence of gastric acid”. Besides, in data set [3] (setting [10]), the highest concentration (Cmax) is 14000 ng/mL and the time to peak (Tmax) was 1.65 h. Further, the “Related Substances, Total” value in data set [4] (T = 0) is recorded as 2.21 % area. Besides, the “Related Substances, Total” value in data set [4] (T = 1 month, 40° C./75% RH) is recorded as 3.01 % area. In addition, in data set [5] (20 minutes), the “average released in in vitro dissolution assay” value (shortened to “average released”) was found to be 90%. Further, in data set [5] (30 minutes), the “average released” value was 96%. In addition, the “average released” value in data set [5] (45 minutes) was found to be 97%.
In the case of `COc1ccc2[nH]c([S+]([O-])Cc3ncc(C)c(OC)c3C)nc2c1` (centres unmarked) [Omeprazole], the T1/2el in [6] (in vivo, po, 40 mg) was 1 h. Also, the “drug absorbed from the gastrointestinal tract” value in [6] (in vivo, po) is on record as “approximately 35%”. Moreover, in data set [6] (in vivo), the “dose excreted in the feces” value is on record as 20%, the “dose recovered as urinary metabolites” value is given as 80% and the “time to completion of absorption” value is no more than 4 h. Besides, the “average half-life of the terminal phase” value in data set [6] (plasma concentration-time curve) is on record as “approximately 40 minutes”. Moreover, the Tmax in [6] (single oral 40 mg dose of omeprazole delayed-release capsules, fasting) was 1.75 h. Further, the plasma protein binding result in data set [7] is reported as “about 95%”. In data set [2], this compound returned a concentration at 0.5 h of 85.8 ng/mL, a concentration at 1 h of 613 ng/mL, a concentration at 2 h of 828 ng/mL and a concentration at 3 h of 466 ng/mL.
Turning to `CO[C@H]1/C=C/O[C@@]2(C)Oc3c(C)c(O)c4c(c3C2=O)C2=NC3(CCN(CC(C)C)CC3)NC2=C(NC(=O)/C(C)=C\C=C\[C@H](C)[C@H](O)[C@@H](C)[C@@H](O)[C@@H](C)[C@H](OC(C)=O)[C@@H]1C)C4=O` [Rifabutin], in data set [7] (concentration range of 50 to 1000 ng/ml), the “bound to plasma proteins” value was “About 85%”. The “mean rate of H. pylori resistance” value in data set [8] (in general) is 1.3%. Further, the “mean rate of H. pylori resistance” value in [8] (patients naïve to H. pylori eradication treatment) is 0.6%. In addition, in data set [2] (150 mg rifabutin over 24 hours in both treatments), the “extent of absorption of rifabutin, single 150 mg capsule relative to test formulation tid” value is 1.5 times. In data set [2], the concentration at 0.5 h was 5.52 ng/mL, the concentration at 1 h worked out at 28.1 ng/mL, the concentration at 2 h turned out to be 66.1 ng/mL and the concentration at 3 h stood at 72.5 ng/mL. The mean systemic clearance in [1] (healthy adult volunteers, single oral dose) is recorded as 0.69 (±0.32) L/hour/kg. Besides, the highest concentration (Cmax) in data set [1] (in vivo, po, 150 mg) is 188 ng/mL. Also, in data set [1] (in vivo, po), the dose absorbed result was “at least 53%” and the “time to peak plasma concentrations” value is 2 to 4 h. Moreover, in data set [1] (in vivo), the “contribution of renal and of biliary excretion of unchanged drug to systemic clearance” value was “approximately 5%”; the “decrease of AUC following multiple dosing” value is on record as 38%; the “steady-state trough levels (Cp, Cminss, 24-hour post dose)” value is 50 to 65 ng/mL. Further, the initial half-life entry in data set [1] (plasma elimination, biphasic) is reported as “approximately 4 hours”. Moreover, in data set [1] (setting [11]), the T1/2el was 40 h and the time of peak concentration (Tmax) was 3 h. For the same compound, the “Related Substances, Total” value in [4] (T = 0) turned out to be 1.13 % area. The “Related Substances, Total” value in data set [4] (T = 1 month, 40° C./75% RH) was found to be 2.11 % area. In [9], this compound had a Cmax of roughly 63 ng/mL. Also, in data set [5] (20 minutes), the “average released” value came out at 95%. Moreover, the “average released” value in data set [5] (30 minutes) is 97%. Moreover, the “average released” value in data set [5] (45 minutes) came to 98%.
